Results published in ChEMBL document CHEMBL3885881, “DrugMatrix”.

Species on record: Rattus norvegicus
Assay: DrugMatrix - Regimen: Daily Repeat
Format: toxicity, organism-based, Sprague-Dawley
Design: regimen Daily Repeat, gender Male, age 6-8 weeks
Details: in vivo, po, route oral GAVAGE, vehicle 100 % WATER; for ABSOLUTE BASOPHIL / ABSOLUTE EOSINOPHIL / ABSOLUTE LYMPHOCYTE / ABSOLUTE MONOCYTE / ABSOLUTE SEGMENTED NEUTROPHIL / BASOPHIL / EOSINOPHIL / ERYTHROCYTE COUNT / HEMATOCRIT / HEMOGLOBIN / LEUKOCYTE COUNT / LYMPHOCYTE / MEAN CORPUSCULAR HEMOGLOBIN / MEAN CORPUSCULAR HEMOGLOBIN CONCENTRATION / MEAN CORPUSCULAR VOLUME / MONOCYTE / NEUTROPHIL / NUCLEATED RED BLOOD CELLS / PLATELET COUNT: tissue Blood; for ALANINE AMINOTRANSFERASE / ALBUMIN / ALKALINE PHOSPHATASE / ASPARTATE AMINOTRANSFERASE / BLOOD UREA NITROGEN / CARBON DIOXIDE / CHLORIDE / CHOLESTEROL / CREATINE PHOSPHOKINASE / CREATININE / GLUCOSE / LACTATE DEHYDROGENASE / LIPASE / PHOSPHORUS / POTASSIUM / SODIUM / TOTAL BILIRUBIN / TOTAL PROTEIN / URIC ACID: tissue Plasma
[1] = 0 mg/kg, 72 h, dose level Control, time 3 day
[2] = 0 mg/kg, 120 h, dose level Control, time 5 day
[3] = 6 mg/kg, 72 h, dose level Low, time 3 day

CN1CCN(C(=O)OC2c3nccnc3C(=O)N2c2ccc(Cl)cn2)CC1 (centres undefined) [ZOPICLONE]
ABSOLUTE BASOPHIL [1]: 0 CELLS/uL | ABSOLUTE EOSINOPHIL [1]: 86.33 CELLS/uL | ABSOLUTE LYMPHOCYTE [1]: 12090.17 CELLS/uL | ABSOLUTE MONOCYTE [1]: 166.67 CELLS/uL | ABSOLUTE SEGMENTED NEUTROPHIL [1]: 1090.17 CELLS/uL | BASOPHIL [1]: 0% | EOSINOPHIL [1]: 0.67% | ERYTHROCYTE COUNT [1]: 5.57 x10E6/uL | HEMATOCRIT [1]: 35.33% | HEMOGLOBIN [1]: 13.83 G/DL | LEUKOCYTE COUNT [1]: 13.43 x10E3/uL | LYMPHOCYTE [1]: 89.83% | MEAN CORPUSCULAR HEMOGLOBIN [1]: 24.88 pg | MEAN CORPUSCULAR HEMOGLOBIN CONCENTRATION [1]: 39.15 G/DL | MEAN CORPUSCULAR VOLUME [1]: 63.52 fL | MONOCYTE [1]: 1.17% | NEUTROPHIL [1]: 8.33% | NUCLEATED RED BLOOD CELLS [1]: 0 /100WBC | PLATELET COUNT [1]: 1181.33 x10E3/uL | ALANINE AMINOTRANSFERASE [1]: 48.33 u/L | ALBUMIN [1]: 4.1 G/DL | ALKALINE PHOSPHATASE [1]: 395 u/L | ASPARTATE AMINOTRANSFERASE [1]: 81.83 u/L | BLOOD UREA NITROGEN [1]: 15.83 mg/dL | CARBON DIOXIDE [1]: 24.17 mmol/L | CHLORIDE [1]: 103.83 MEQ/L | CHOLESTEROL [1]: 63.67 mg/dL | CREATINE PHOSPHOKINASE [1]: 372.83 u/L | CREATININE [1]: 0.18 mg/dL | GLUCOSE [1]: 173.83 mg/dL | LACTATE DEHYDROGENASE [1]: 188.33 u/L | LIPASE [1]: 9.5 u/L | PHOSPHORUS [1]: 11.95 mg/dL | POTASSIUM [1]: 5.99 MEQ/L | SODIUM [1]: 144.43 MEQ/L | TOTAL BILIRUBIN [1]: 0.15 mg/dL | TOTAL PROTEIN [1]: 5.95 G/DL | URIC ACID [1]: 1.82 mg/dL | ABSOLUTE BASOPHIL [2]: 0 CELLS/uL | ABSOLUTE EOSINOPHIL [2]: 26.67 CELLS/uL | ABSOLUTE LYMPHOCYTE [2]: 7583.83 CELLS/uL | ABSOLUTE MONOCYTE [2]: 131.33 CELLS/uL | ABSOLUTE SEGMENTED NEUTROPHIL [2]: 674.83 CELLS/uL | BASOPHIL [2]: 0% | EOSINOPHIL [2]: 0.33% | ERYTHROCYTE COUNT [2]: 5.78 x10E6/uL | HEMATOCRIT [2]: 36.48% | HEMOGLOBIN [2]: 14.03 G/DL | LEUKOCYTE COUNT [2]: 8.42 x10E3/uL | LYMPHOCYTE [2]: 89.83% | MEAN CORPUSCULAR HEMOGLOBIN [2]: 24.3 pg | MEAN CORPUSCULAR HEMOGLOBIN CONCENTRATION [2]: 38.52 G/DL | MEAN CORPUSCULAR VOLUME [2]: 63.15 fL | MONOCYTE [2]: 1.67% | NEUTROPHIL [2]: 8.17% | NUCLEATED RED BLOOD CELLS [2]: 0 /100WBC | PLATELET COUNT [2]: 1186.67 x10E3/uL | ALANINE AMINOTRANSFERASE [2]: 50.17 u/L | ALBUMIN [2]: 4.07 G/DL | ALKALINE PHOSPHATASE [2]: 367.5 u/L | ASPARTATE AMINOTRANSFERASE [2]: 81.67 u/L | BLOOD UREA NITROGEN [2]: 16.17 mg/dL | CARBON DIOXIDE [2]: 32.33 mmol/L | CHLORIDE [2]: 101.5 MEQ/L | CHOLESTEROL [2]: 65.33 mg/dL | CREATINE PHOSPHOKINASE [2]: 255.33 u/L | CREATININE [2]: 0.17 mg/dL | GLUCOSE [2]: 139.33 mg/dL | LACTATE DEHYDROGENASE [2]: 95 u/L | LIPASE [2]: 10.5 u/L | PHOSPHORUS [2]: 10.38 mg/dL | POTASSIUM [2]: 6.11 MEQ/L | SODIUM [2]: 145.55 MEQ/L | TOTAL BILIRUBIN [2]: 0.17 mg/dL | TOTAL PROTEIN [2]: 5.98 G/DL | URIC ACID [2]: 0.93 mg/dL | ABSOLUTE BASOPHIL [3]: 0 CELLS/uL | ABSOLUTE EOSINOPHIL [3]: 0 CELLS/uL | ABSOLUTE LYMPHOCYTE [3]: 14318.33 CELLS/uL | ABSOLUTE MONOCYTE [3]: 218 CELLS/uL | ABSOLUTE SEGMENTED NEUTROPHIL [3]: 1497 CELLS/uL | BASOPHIL [3]: 0% | EOSINOPHIL [3]: 0% | ERYTHROCYTE COUNT [3]: 5.61 x10E6/uL | HEMATOCRIT [3]: 35.47% | HEMOGLOBIN [3]: 13.67 G/DL | LEUKOCYTE COUNT [3]: 16.03 x10E3/uL | LYMPHOCYTE [3]: 89.33% | MEAN CORPUSCULAR HEMOGLOBIN [3]: 24.37 pg | MEAN CORPUSCULAR HEMOGLOBIN CONCENTRATION [3]: 38.53 G/DL | MEAN CORPUSCULAR VOLUME [3]: 63.23 fL | MONOCYTE [3]: 1.33% | NEUTROPHIL [3]: 9.33% | NUCLEATED RED BLOOD CELLS [3]: 0 /100WBC | PLATELET COUNT [3]: 1106.33 x10E3/uL | ALANINE AMINOTRANSFERASE [3]: 43.67 u/L | ALBUMIN [3]: 3.9 G/DL | ALKALINE PHOSPHATASE [3]: 402 u/L | ASPARTATE AMINOTRANSFERASE [3]: 70.33 u/L | BLOOD UREA NITROGEN [3]: 14.33 mg/dL | CARBON DIOXIDE [3]: 25.33 mmol/L | CHLORIDE [3]: 102 MEQ/L | CHOLESTEROL [3]: 72.33 mg/dL | CREATINE PHOSPHOKINASE [3]: 454.67 u/L | CREATININE [3]: 0.15 mg/dL | GLUCOSE [3]: 170.33 mg/dL | LACTATE DEHYDROGENASE [3]: 139 u/L | LIPASE [3]: 9 u/L | PHOSPHORUS [3]: 12.8 mg/dL | POTASSIUM [3]: 6.03 MEQ/L | SODIUM [3]: 142.73 MEQ/L | TOTAL BILIRUBIN [3]: 0.2 mg/dL | TOTAL PROTEIN [3]: 5.63 G/DL | URIC ACID [3]: 1.97 mg/dL
